{"source": "patent US6552014B2", "about": "“Methods of inhibiting platelet activation with selective serotonin reuptake inhibitors” (HeartDrug Research, L.L.C., priority 1999, dated 2003)", "key": {"human platelets": {"system": "human platelets", "experiment": "Platelet inhibition / platelet activation state, overall statement", "assay_type": "cell-based", "details": "platelet rich plasma and whole blood", "protocol": "Trisodium citrate (3.8%) and whole blood is immediately mixed in a 1:9 ratio, and then centrifuged at 1200 g for 2.5 minutes, to obtain platelet-rich plasma (PRP), which is kept at room temperature for use within 1 hour for platelet aggregation studies. Platelet count is determined in each PRP sample with a Coulter Counter ZM (Coulter Co., Hialeah, Fla.). Platelet numbers are adjusted to 3.50×10^8/ml for aggregation with homologous platelet-poor plasma. PRP and whole blood aggregation tests are performed simultaneously. Whole blood is diluted 1.1 with the 0.5 ml PBS, and then swirled gently to mix . […] Platelet aggregability are expressed as the percentage of light transmittance change from baseline using platelet-poor plasma as a reference at the end of recording time for plasma samples, or as a change in electrical impedance for whole blood samples. Aggregation curves are recorded for 4 minutes and analyzed according to internationally established standards using Aggrolinkg® software.\nVenous blood (8 ml) was collected in a plastic tube containing 2 ml of acid-citrate-dextrose (ACD) (7.3 g citric acid, 22.0 g sodium citrate×2H2O and 24.5 glucose in 1000 ml distilled water) and mixed well. […] Samples were stored in the refrigerator at +4 °C, and analyzed on a Becton Dickinson FACScan flow cytometer with laser output of 15 mw, excitation at 488 nm, and emission detection at 530±30 nm. […]"}, "GP IIb": {"system": "GP IIb", "experiment": "Flow cytometry of platelet antigen expression, platelet rich plasma", "assay_type": "cell-based, human", "details": "PRP, desmethylsertraline 64.2 ng/ml"}}, "data": [{"smiles": "N[C@H]1CC[C@@H](c2ccc(Cl)c(Cl)c2)c2ccccc21", "note": "[Desmethyl sertraline, N-desmethylsertraline]", "values": [{"measurement": "platelet inhibition / platelet activation state, in words", "setting": "human platelets", "value": "potent dose-dependent effects inhibiting human platelets"}, {"measurement": "platelet inhibition / platelet activation state, in words", "setting": "human platelets; listed as NDMS", "value": "significantly reduces the platelet activation state"}, {"measurement": "GP IIb (mean) log fluorescence intensity", "setting": "GP IIb; healthy volunteers", "value": 37}, {"measurement": "GP IIb (peak) log fluorescence intensity", "setting": "GP IIb; post-angioplasty patient on aspirin", "value": 20}]}]}
